Consider seven molecules from patent publication US20250188075A1, “SUBSTITUTED HETEROCYCLIC CSNK1 INHIBITORS” (The Broad Institute, Inc., priority 2022, published 2025).

Molecules are shown by their SMILES. Bounds are passed on as bounds.

human Ether-a-go-go-Related Gene (hERG) potassium channel, sequence (Q12809 whole entry): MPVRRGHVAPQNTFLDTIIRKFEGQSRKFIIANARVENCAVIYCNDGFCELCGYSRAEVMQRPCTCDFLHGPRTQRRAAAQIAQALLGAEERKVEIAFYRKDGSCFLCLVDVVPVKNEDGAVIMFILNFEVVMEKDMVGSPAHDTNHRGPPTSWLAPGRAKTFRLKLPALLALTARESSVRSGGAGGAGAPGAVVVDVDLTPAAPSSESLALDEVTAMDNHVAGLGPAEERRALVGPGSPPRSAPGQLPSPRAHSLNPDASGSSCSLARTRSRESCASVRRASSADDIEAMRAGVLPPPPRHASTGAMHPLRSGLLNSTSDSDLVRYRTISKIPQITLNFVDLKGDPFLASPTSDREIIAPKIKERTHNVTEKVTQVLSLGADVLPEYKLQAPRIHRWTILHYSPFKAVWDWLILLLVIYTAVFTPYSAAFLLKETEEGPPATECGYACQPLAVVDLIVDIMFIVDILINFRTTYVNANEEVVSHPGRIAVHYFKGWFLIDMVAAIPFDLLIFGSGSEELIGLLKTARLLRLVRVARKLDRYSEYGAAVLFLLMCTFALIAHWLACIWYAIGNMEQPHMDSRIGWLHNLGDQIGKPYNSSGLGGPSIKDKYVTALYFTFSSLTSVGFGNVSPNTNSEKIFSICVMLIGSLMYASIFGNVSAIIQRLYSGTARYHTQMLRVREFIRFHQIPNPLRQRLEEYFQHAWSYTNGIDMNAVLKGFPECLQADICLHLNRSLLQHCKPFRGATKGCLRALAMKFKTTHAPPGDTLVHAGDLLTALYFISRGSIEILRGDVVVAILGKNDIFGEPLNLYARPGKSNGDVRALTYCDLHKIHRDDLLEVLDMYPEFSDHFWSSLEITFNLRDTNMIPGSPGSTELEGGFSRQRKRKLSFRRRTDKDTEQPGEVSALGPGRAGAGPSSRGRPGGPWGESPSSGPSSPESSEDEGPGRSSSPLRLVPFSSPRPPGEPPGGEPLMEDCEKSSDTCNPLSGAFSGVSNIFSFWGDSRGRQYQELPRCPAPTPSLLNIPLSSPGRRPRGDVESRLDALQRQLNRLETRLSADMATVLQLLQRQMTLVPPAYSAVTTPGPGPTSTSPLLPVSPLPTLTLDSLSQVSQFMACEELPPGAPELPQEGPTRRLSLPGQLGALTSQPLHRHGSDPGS

The assay concerns the target human Ether-a-go-go-Related Gene (hERG) potassium channel (Homo sapiens (Human), UniProt Q12809). Description: hERG inhibition assay, automated voltage clamp. The class given is cell-based. Particulars: HEK293 cells stably expressing hERG alpha subunit. How it is done: Following harvest, cells were transferred to the cell reservoir of a 384 channel automated patch clamp device and stored there at 20° C. until usage.
Upon start of the automated voltage clamp procedure, hERG cells were transferred to a 384 well patch clamp chip (pipette resistance of ˜[…] (2) prefilled with external solution (containing in mM: 143 NaCl, 4 KCl, 2 CaCl2), 1 MgCl2, 5 glucose, 10 HEPES; pH 7.4 (NaOH)). Underpressure was applied underneath the glass bottom of the patch clamp chip to position the hERG cells on the recording sites in the glass bottom of the chip. Following successful cell catch, underpressure was stopped and a seal enhancing solution (containing in mM: 78 NaCl, 60 NMDG, 4 KCl, 10 CaCl2), 1 MgCl2, 5 glucose, 10 HEPES; pH 7.4 (HCl)) was added to the hERG cells to facilitate the formation of stable seals between the membranes of the hERG cells and the glass next to the recording sites. Then, hERG cells were washed several times with wash solution (containing in mM: 87 NaCl, 60 NMDG, 4 KCl, 2 CaCl2), 1 MgCl2, 5 glucose, 10 HEPES; pH 7.4 (HCl)) to remove excess seal enhancing solution. In the meantime, the membrane parts of the hERG cells covering the recording sites were exposed to internal solution (containing in mM: 10 NaCl, 123 KF, 10 EGTA, 10 HEPES; pH 7.2 (KOH)) supplemented with 5-20 μM Escin, and the perforated patch configuration was established. Next, the holding potential was stepwise adjusted to −80 mV, capacitance was compensated, and a series of defined voltage commands was initiated to trigger the hERG current response from the hERG cells (−80 mV for 200 ms, +20 mV for 1000 ms, −40 mV for 500 ms; repeated at a frequency of 0.1 Hz). To determine whether the test item inhibits hERG, different solutions were sequentially applied to the hERG cells: First, a negative control (i.e. wash solution supplemented with 0.3% DMSO and 0.01% HSA) was applied for at least 3 min to investigate the basic electrophysiological properties of the hERG cells as well as define their standard current response. Next, a solution containing the test item at a final concentration of (0.1, 1, or 10) μM was applied for 10 min to measure eventual inhibitory effects of the test item on the hERG current (—the test item solution was produced from a 10 mM DMSO stock by using an automated pipetting device and sequential dilution). Finally, a positive control (i.e. wash solution supplemented with 0.3% DMSO, 0.01% HSA, and 10 μM quinidine) was added to the cells for ˜3 min to block the hERG current and, thereby, define the maximum inhibition. For data analysis, experimental results were processed using the automated patch clamp device-specific software as well as a custom-made software, and TIBCO Spotfire. For each successful recording, hERG tail current amplitudes were averaged from three consecutive current responses at the end of the negative control phase, test item phase, and positive control phase, respectively. Resulting mean hERG tail current amplitudes were normalized to the mean hERG tail current amplitude at the end of the negative control phase with nominal 0% inhibition as well as the hERG tail current amplitude at the end of the positive control phase with nominal 100% inhibition. Then, the effect of the test item was calculated as a percentage inhibition value at the test item concentration applied. Finally, percentage inhibition values from all successful recordings at a particular test item concentration were averaged and combined to construct a standard sigmoidal dose response curve, determine the half maximal inhibitory concentration (IC50) of the test item as well as extrapolate its IC20.
With `O=C(Cc1cnc2ccccc2n1)Nc1cc(-c2[nH]c3cccnc3c2-c2ccccn2)ccn1` [Example 6, N-[4-[3-(2-pyridyl)-^1H-pyrrolo[3,2-b]pyridin-2-yl]-2-pyridyl]-2-quinoxalin-2-yl-acetamide], the IC50 (commonly the concentration that inhibits the measured activity by half) came out at 5.35 µM.
Consider `O=C(Cc1cc2ccccn2n1)Nc1cc(-c2[nH]c3cccnc3c2-c2ccccn2)ccn1` [Example 15, 2-pyrazolo[1,5-a]pyridin-2-yl-N-[4-[3-(2-pyridyl)-^1H-pyrrolo[3,2-b]pyridin-2-yl]-2-pyridyl]acetamide], for which the IC50 was found to be 1.45 µM.
In turn, `CC(C)n1ccc(CC(=O)Nc2cc(-c3[nH]c4cccnc4c3-c3ccccn3)ccn2)n1` [Example 28, 2-(1-isopropylpyrazol-3-yl)-N-[4-[3-(2-pyridyl)-^1H-pyrrolo[3,2-b]pyridin-2-yl]-2-pyridyl]acetamide] showed an IC50 of 8.69 µM.
Regarding `Cc1nc(CC(=O)Nc2cc(-c3[nH]c4cccnc4c3-c3ccccn3)ccn2)cs1` [Example 3, 2-(2-methylthiazol-4-yl)-N-[4-[3-(2-pyridyl)-^1H-pyrrolo[3,2-b]pyridin-2-yl]-2-pyridyl]acetamide], the half-maximal inhibitory concentration (IC50) is 5.98 µM.
For the molecule `O=C(Cc1cnco1)Nc1cc(-c2[nH]c3cccnc3c2-c2ccccn2)ccn1` [Example 4], the IC50 is over 10 µM.
`Cn1nc(CC(=O)Nc2cc(-c3[nH]c4cccnc4c3-c3ccccn3)ccn2)cc1C(F)(F)F` [Example 21, 2-[1-methyl-5-(trifluoromethyl)pyrazol-3-yl]-N-[4-[3-(2-pyridyl)-^1H-pyrrolo[3,2-b]pyridin-2-yl]-2-pyridyl]acetamide] displayed an IC50 of 0.81 µM.
With `Cc1nc(C)c(CC(=O)Nc2cc(-c3[nH]c4cccnc4c3-c3ccccn3)ccn2)s1` [Example 18, 2-(2,4-dimethylthiazol-5-yl)-N-[4-[3-(2-pyridyl)-^1H-pyrrolo[3,2-b]pyridin-2-yl]-2-pyridyl]acetamide] the figure was 2.05 µM.
